The structures appear in SMILES notation.

Here are results for 24 compounds from patent publication US10836775B2, “6,6-fused heteroaryl piperidine ether allosteric modulators of the M4 muscarinic acetylcholine receptor” (Merck Sharp & Dohme Corp., priority 2016, dated 2020).

For the assay, the target named is T1, human M4 muscarinic acetylcholine receptor (Homo sapiens, UniProt P08173).
T1 construct: expressed in transfected cells; host or cells: CHO-K1
T1 sequence (P08173 1-479): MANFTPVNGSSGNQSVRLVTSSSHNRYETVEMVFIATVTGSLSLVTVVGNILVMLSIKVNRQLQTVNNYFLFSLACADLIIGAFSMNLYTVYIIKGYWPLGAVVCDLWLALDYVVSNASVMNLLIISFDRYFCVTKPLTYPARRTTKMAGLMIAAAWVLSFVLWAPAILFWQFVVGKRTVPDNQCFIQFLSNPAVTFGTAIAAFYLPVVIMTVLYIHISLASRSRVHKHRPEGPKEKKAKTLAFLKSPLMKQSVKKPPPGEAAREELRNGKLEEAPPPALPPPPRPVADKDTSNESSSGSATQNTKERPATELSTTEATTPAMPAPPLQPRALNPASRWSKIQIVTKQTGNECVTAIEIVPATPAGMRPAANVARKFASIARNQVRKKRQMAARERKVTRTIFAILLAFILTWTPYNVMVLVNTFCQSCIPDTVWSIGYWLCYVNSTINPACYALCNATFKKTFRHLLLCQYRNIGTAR
In words: human FLIPR-based M4 PAM assay (CHO-K1 cells, human M4 receptor and Gαqi5, calcium dye fluorescence, acetylcholine at 20% of maximum). It counts as cell-based. The settings on record: inflection point (IP) of 4 parameter logistic dose response curve; CHO-K1 cells with human M4 receptor and Gαqi5; FLIPR Tetra. The protocol: In a typical experiment the M4 muscarinic acetylcholine receptor modulating activity of the compounds of the present invention was determined in accordance with the following experimental method. […] On the day of assay, growth medium is removed, the cells are washed 2 times with wash buffer, and cells are incubated in dye loading buffer at 37° C., 5% CO2 for ˜1 hour. […] Next, 10 uL of acetylcholine is added (final concentration calculated so as to achieve 20% of the maximum acetycholine response), and the fluorescence reading is continued for 3.5 min. In some cases, a third addition of acetylcholine (final concentration calculated to achieve 70% of the maximal acetylcholine response) is performed. The resulting dose response curves are fit to a 4 parameter logistic equation and the final result is determined as the inflection point (IP) of the curve
CHO-K1 cells stably transfected with human M4 receptor and chimeric G-protein Gαqi5 are thawed from liquid N2 storage, resuspended in growth medium, plated in black, clear bottom 384 well plates, and incubated 16-20 hours at 37° C., 5% CO2.
On the day of assay, growth medium is removed, the cells are washed 2 times with wash buffer, and cells are incubated in dye loading buffer at 37° C., 5% CO2 for ˜1 h. […] Next, 10 uL of acetylcholine is added (final concentration calculated so as to achieve 20% of the maximum acetycholine response), and the fluorescence reading is continued for 3.5 min. In some cases, a third addition of acetylcholine (final concentration calculated to achieve 70% of the maximal acetylcholine response) is performed.
Consider `CCc1cc2c(=O)[nH]c(=O)[nH]c2nc1N1CCC(OCC2(C)CC2)CC1` [Example 31, 6-ethyl-7-(4-((1-methylcyclopropyl)methoxy)piperidin-1-yl)pyrido[2,3-d]pyrimidine-2,4(1H,3H)-dione], for which the concentration for a half-maximal effect (EC50) (in general, the midpoint of the concentration-response curve) was 42 nM. For `COc1ccc(OC2CCN(c3nc4nc(C)n(C)c(=O)c4cc3C)CC2)cn1` [Example 40, 7-(4-((6-methoxypyridin-3-yl)oxy)piperidin-1-yl)-2,3,6-trimethyl-pyrido[2,3-d]pyrimidin-4(3H)-one], the concentration giving a half-maximal response (EC50) came out at 155 nM. Regarding `COCc1nc2nc(N3CCC(Oc4ccc(OC)nc4)CC3)c(C)cc2c(=O)[nH]1` [Example 28, 2-(methoxymethyl)-7-(4-((6-methoxypyridin-3-yl)oxy)piperidin-1-yl)-6-methylpyrido[2,3-d]pyrimidin-4(3H)-one], the EC50 is 95 nM. The figure for `Cc1cc2c(=O)[nH]ncc2nc1N1CCC(Oc2cnc3c(c2)COC3)CC1` [Example 29, 2-(4-((5,7-dihydrofuro[3,4-b]pyridin-3-yl)oxy)piperidin-1-yl)-3-methylpyrido[2,3-d]pyridazin-5(6H)-one] is 53 nM.

Regarding `COc1ccc(OC2CCN(c3nc4nc(CO)[nH]c(=O)c4cc3C)CC2)cn1` [Example 9, 2-(Hydroxymethyl)-7-(4-((6-methoxypyridin-3-yl)oxy)piperidin-1-yl)-6-methylpyrido[2,3-d]pyrimidin-4(3H)-one], the 50% effective concentration (EC50) turned out to be 140 nM. On to `COc1ccc(OC2CCN(c3nc4nc[nH]c(=O)c4cc3C)CC2)cn1` [Example 10, 7-(4-((6-methoxypyridin-3-yl)oxy)piperidin-1-yl)-6-methylpyrido[2,3-d]pyrimidin-4(3H)-one], for which the EC50 is 34 nM. Take `Cc1cc2c(=O)[nH]c(=O)[nH]c2nc1N1CCC(OCC2CCCCC2)CC1` [Example 34, 7-(4-(cyclohexyl-methoxy)piperidin-1-yl)-6-methylpyrido[2,3-d]pyrimidine-2,4(1H,3H)-dione]: the 50% effective concentration (EC50) was 361 nM. For the compound `Cc1cc2c(=O)[nH]c(=O)[nH]c2nc1N1CCC(OCC2CCCC2)CC1` [Example 38, 7-(4-(cyclopentyl-methoxy)piperidin-1-yl)-6-methylpyrido[2,3-d]pyrimidine-2,4(1H,3H)-dione], the concentration for a half-maximal effect (EC50) was 112 nM. For `COc1ccc(OC2CCN(c3nc4cnn(CCO)c(=O)c4cc3C)CC2)cn1` [Example 42, 6-(2-Hydroxyethyl)-2-(4-((6-methoxypyridin-3-yl)oxy)piperidin-1-yl)-3-methylpyrido[2,3-d]pyridazin-5(6H)-one], the EC50 worked out at 110 nM. As for `COc1ccc(OC2CCN(c3nc4c(cc3C)CNC(=O)N4)CC2)cn1` [Example 48, 7-(4-((6-Methoxypyridin-3-yl)oxy)piperidin-1-yl)-6-methyl-3,4-dihydropyrido[2,3-d]pyrimidin-2(1H)-one], the EC50 was determined as 272 nM. Regarding `Cc1nc2nc(N3CCC(OCC4(C)CC4)CC3)c(C)cc2c(=O)[nH]1` [Example 20, 2,6-dimethyl-7-(4-((1-methylcyclopropyl)methoxy)piperidin-1-yl)pyrido[2,3-d]pyrimidin-4(3H)-one], the concentration giving a half-maximal response (EC50) amounted to 50 nM. The figure for `Cc1nc2nc(N3CCC(Oc4cnc5c(c4)COC5)CC3)c(C)cc2c(=O)[nH]1` [Example 22, 7-(4-((5,7-dihydrofuro[3,4-b]pyridin-3-yl)oxy)piperidin-1-yl)-2,6-dimethylpyrido[2,3-d]pyrimidin-4(3H)-one] is 158 nM. Consider `COCCc1nc2nc(N3CCC(Oc4ccc(OC)nc4)CC3)c(C)cc2c(=O)[nH]1` [Example 30, 2-(2-methoxyethyl)-7-(4-((6-methoxypyridin-3-yl)oxy)piperidin-1-yl)-6-methylpyrido[2,3-d]pyrimidin-4(3H)-one], for which the EC50 stood at 546 nM. Turning to `Cc1cc2c(=O)[nH]c(=O)[nH]c2nc1N1CCC(Oc2cnn(C)c2)CC1` [Example 26, 6-methyl-7-(4-((1-methyl-1H-pyrazol-4-yl)oxy)piperidin-1-yl)pyrido[2,3-d]pyrimidine-2,4(1H,3H)-dione], the EC50 amounted to 90 nM. Regarding `COc1ccc(OC2CCN(c3nc4oc(C)cc(=O)c4cc3C)CC2)cn1` [Example 41, 7-(4-((6-methoxypyridin-3-yl)oxy)piperidin-1-yl)-2,6-dimethyl-4H-pyrano[2,3-b]pyridin-4-one], the EC50 amounted to 100 nM.

On to `Cc1cc2c(=O)n(CCO)ncc2nc1N1CCC(OCC2(C)CC2)CC1` [Example 43, 6-(2-hydroxyethyl)-3-methyl-2-(4-((1-methylcyclopropyl)methoxy)piperidin-1-yl)pyrido[2,3-d]pyridazin-5(6H)-one], for which the EC50 stood at 133 nM. Turning to `COc1ccc(OC2CCN(c3nc4cc(C)oc(=O)c4cc3C)CC2)cn1` [Example 55, 2-(4-((6-Methoxypyridin-3-yl)oxy)piperidin-1-yl)-3,7-dimethyl-5H-pyrano[4,3-b]pyridin-5-one], the half-maximal effective concentration (EC50) stood at 70 nM.

In the case of `Cc1cc2c(=O)[nH]c(=O)[nH]c2nc1N1CCC(OCC(C)C)CC1` [Example 36, 7-(4-isobutoxy-piperidin-1-yl)-6-methylpyrido[2,3-d]pyrimidine-2,4(1H,3H)-dione], the 50% effective concentration (EC50) worked out at 138 nM. As for `COc1ccc(OC2CCN(c3nc4c(cc3C)CCNC4=O)CC2)cn1` [Example 46, 2-(4-((6-Methoxypyridin-3-yl)oxy)piperidin-1-yl)-3-methyl-6,7-dihydro-1,7-naphthyridin-8(51H)-one], the EC50 stood at 587 nM. For the compound `COc1ccc(OC2CCN(c3nc4ncn(C)c(=O)c4cc3C)CC2)cn1` [Example 44, 7-(4-((6-Methoxypyridin-3-yl)oxy)piperidin-1-yl)-3,6-dimethylpyrido[2,3-d]pyrimidin-4(3H)-one], the EC50 is 135 nM. Regarding `COc1ccc(OC2CCN(c3nc4[nH]c(=O)[nH]c(=O)c4cc3C)CC2)cn1` [Example 8, 7-(4-((6-Methoxypyridin-3-yl)oxy)piperidin-1-yl)-6-methylpyrido[2,3-d]pyrimidine-2,4(1H,3H)-dione], the EC50 is 18 nM. Turning to `Cc1cc2c(=O)[nH]c(=O)[nH]c2nc1N1CCC(OCC2CCC2)CC1` [Example 32, 7-(4-(cyclobutyl-methoxy)piperidin-1-yl)-6-methylpyrido[2,3-d]pyrimidine-2,4(1H,3H)-dione], the 50% effective concentration (EC50) stood at 236 nM. For `COc1ccc(CN2CCc3nc(N4CCC(Oc5ccc(OC)nc5)CC4)c(C)cc3C2=O)cc1` [Example 2, 6-(4-methoxybenzyl)-2-(4-((6-methoxypyridin-3-yl)oxy)piperidin-1-yl)-3-methyl-7,8-dihydro-1,6-naphthyridin-5(6H)-one], the EC50 was found to be 988 nM. In the case of `COc1ccc(OC2CCN(c3nc4occc(=O)c4cc3C)CC2)cn1` [Example 35, 7-(4-((6-methoxypyridin-3-yl)oxy)piperidin-1-yl)-6-methyl-4H-pyrano[2,3-b]pyridin-4-one], the EC50 was 38 nM.
